The values that follow come from PubChem BioAssay AID1259407 (Chemical Carcinogenesis Research Information System (CCRIS), 2018).

In the data set the test system is CCRIS mutagenicity, Ames/micronucleus/aberration tests. The data set can be described thus: CCRIS mutagenicity studies. The following applies: Test System: AMES SALMONELLA TYPHIMURIUM
Setting [1] is: Strain/Indicator: TA100, Metabolic Activation: NONE, Method: PREINCUBATION
[2] abbreviates: Strain/Indicator: TA100, Metabolic Activation: RAT, LIVER, S-9, AROCLOR 1254, Method: PREINCUBATION

Active and inactive are the calls of the source. No rule for the calls is given here.

For the compound `CCOc1ccc(N=O)cc1`, the mutagenic call (Strain/Indicator: TA98, Metabolic Activation: NONE, Method: STANDARD PLATE) was “active; positive”; the mutagenic call (Strain/Indicator: TA98, Metabolic Activation: RAT, LIVER, S-9, AROCLOR 1254, Method: STANDARD PLATE) was “active; positive”; the mutagenic call (Strain/Indicator: TA100(NR), Metabolic Activation: NONE, Method: PREINCUBATION) was “active; positive”; the mutagenic call (Strain/Indicator: TA100(NR), Metabolic Activation: NONE, Method: STANDARD PLATE) was “active; positive”; the mutagenic call (Strain/Indicator: TA100(NR), Metabolic Activation: RAT, LIVER, S-9, AROCLOR 1254, Method: PREINCUBATION) was “active; positive”; the mutagenic call (Strain/Indicator: TA100(NR), Metabolic Activation: RAT, LIVER, S-9, AROCLOR 1254, Method: STANDARD PLATE) is “active; positive”. Moreover, the mutagenic call runs as follows: (Strain/Indicator: TA100, Metabolic Activation: HAMSTER, LIVER, S-9, KANECHLOR 400, Method: PREINCUBATION) “active; positive”; under setting [1], “active; positive”; (Strain/Indicator: TA100, Metabolic Activation: NONE, Method: STANDARD PLATE) “active; positive”; under setting [2], “active; positive”; (Strain/Indicator: TA100, Metabolic Activation: RAT, LIVER, S-9, AROCLOR 1254, Method: STANDARD PLATE) “active; positive”; (Strain/Indicator: TA100TN5-1,8-DNP1011, Metabolic Activation: NONE, Method: PREINCUBATION) “active; positive”. Also, the mutagenic call (Strain/Indicator: TA100TN5-1,8-DNP1011, Metabolic Activation: NONE, Method: STANDARD PLATE) was “active; positive”; the mutagenic call (Strain/Indicator: TA100TN5-1,8-DNP1011, Metabolic Activation: RAT, LIVER, S-9, AROCLOR 1254, Method: PREINCUBATION) was “active; positive”; the mutagenic call (Strain/Indicator: TA100TN5-1,8-DNP1011, Metabolic Activation: RAT, LIVER, S-9, AROCLOR 1254, Method: STANDARD PLATE) is “active; positive”; the mutagenic call (Strain/Indicator: TA100TN5-1,8-DNP1012, Metabolic Activation: NONE, Method: PREINCUBATION) is “active; positive”; the mutagenic call (Strain/Indicator: TA100TN5-1,8-DNP1012, Metabolic Activation: NONE, Method: STANDARD PLATE) was “active; positive”; the mutagenic call (Strain/Indicator: TA100TN5-1,8-DNP1012, Metabolic Activation: RAT, LIVER, S-9, AROCLOR 1254, Method: PREINCUBATION) is “active; positive”. Further, where the note is “Strain/Indicator: TA100TN5-1,8-DNP1012, Metabolic Activation: RAT, LIVER, S-9, AROCLOR 1254, Method: STANDARD PLATE”, the mutagenic call is “active; positive”.
In the case of `Oc1cc(Cl)cc(Cl)c1`, the mutagenic call by setting is: (Strain/Indicator: TA98, Metabolic Activation: HAMSTER, LIVER, S-9, AROCLOR 1254, Method: PREINCUBATION) “inactive; negative”; (Strain/Indicator: TA98, Metabolic Activation: NONE, Method: PREINCUBATION) “inactive; negative”; (Strain/Indicator: TA98, Metabolic Activation: RAT, LIVER, S-9, AROCLOR 1254, Method: PREINCUBATION) “inactive; negative”; (Strain/Indicator: TA100, Metabolic Activation: HAMSTER, LIVER, S-9, AROCLOR 1254, Method: PREINCUBATION) “inactive; negative”; under setting [1], “inactive; negative”; under setting [2], “inactive; negative”. The mutagenic call runs as follows: (Strain/Indicator: TA1535, Metabolic Activation: HAMSTER, LIVER, S-9, AROCLOR 1254, Method: PREINCUBATION) “inactive; negative”; (Strain/Indicator: TA1535, Metabolic Activation: NONE, Method: PREINCUBATION) “inactive; negative”; (Strain/Indicator: TA1535, Metabolic Activation: RAT, LIVER, S-9, AROCLOR 1254, Method: PREINCUBATION) “inactive; negative”; (Strain/Indicator: TA1537, Metabolic Activation: HAMSTER, LIVER, S-9, AROCLOR 1254, Method: PREINCUBATION) “inactive; negative”; (Strain/Indicator: TA1537, Metabolic Activation: NONE, Method: PREINCUBATION) “inactive; negative”; (Strain/Indicator: TA1537, Metabolic Activation: RAT, LIVER, S-9, AROCLOR 1254, Method: PREINCUBATION) “inactive; negative”.
